What follows are compounds tested on Matricaria recutita, Diplotaxis tenuifolia, Agrostis spp., Poa annua, or Arabidopsis thaliana (assay: Plant phenotyping assay (herbicidal phenotypes, 96-well plates)). Settings: visual score of herbicidal phenotypes after seven days; 238, 475, 950, and 1900 g ai/ha (50-400 uM).
Assay type: in vivo
Procedure: Seeds of Matricaria recutita, Diplotaxis tenuifolia, Agrostis spp., Poa annua, or Arabidopsis thaliana were sown into 96-well plates containing 200 μl of growth media [0.5× Murashige and Skoog (MS) basal media (Sigma-Aldrich), 2.5 mM 2-(N-morpholino) ethanesulfonic acid (MES—Sigma-Aldrich), 0.7 g/L Phytagar (Invitrogen); pH 5.7]. Three to five seeds were distributed per well. Plates were placed under fifteen hours of light at 23° C., 65% humidity in a controlled environment growth chamber. After approximately three days, test compounds and controls were mixed with acetone and emulsified with an equal volume of 3% methyl ester of rapeseed oil (Mero), and applied to plants at concentrations of 238, 475, 950, and 1900 g ai/ha (50-400 uM).
For `COc1cnc(OC)n2nc(NS(=O)(=O)c3c(OC4CCN(CCOCCOCCOCCN5CCN(c6ccc7c(c6)C(=O)N(C6CCC(=O)NC6=O)C7=O)CC5)CC4)cccc3C(F)(F)F)nc12` (stereo not drawn) [Compound 4-O, N-(5,8-Dimethoxy-[1,2,4]triazolo[1,5-c]pyrimidin-2-yl)-2-((1-(2-(2-(2-(2-(4-(2-(2,6-dioxopiperidin-3-yl)-1,3-dioxoisoindolin-5-yl)piperazin-1-yl)ethoxy)ethoxy)ethoxy)ethyl)piperidin-4-yl)oxy)-6-(trifluoromethyl)benzenesulfonamide], the “Plant Activity” value was “−”.
`COc1cnc(OC)n2nc(NS(=O)(=O)c3c(OCCOCCN4CCN(c5ccc6c(c5)C(=O)N(C5CCC(=O)NC5=O)C6=O)CC4)cccc3C(F)(F)F)nc12` (stereo not drawn) [Compound 4-P, N-(5,8-dimethoxy-[1,2,4]triazolo[1,5-c]pyrimidin-2-yl)-2-(2-(2-(4-(2-(2,6-dioxopiperidin-3-yl)-1,3-dioxoisoindolin-5-yl)piperazin-1-yl)ethoxy)ethoxy)-6-(trifluoromethyl)benzenesulfonamide] was tested, and the “Plant Activity” value was “+”.
`COc1cnc(OC)n2nc(NS(=O)(=O)c3c(OCCOCCOCCOCCCN4CCN(c5ccc6c(c5)C(=O)N(C5CCC(=O)NC5=O)C6=O)CC4)cccc3C(F)(F)F)nc12` (stereo not drawn) [Compound 4-Q, N-(5,8-Dimethoxy-[1,2,4]triazolo[1,5-c]pyrimidin-2-yl)-2-(2-(2-(2-(3-(4-(2-(2,6-dioxopiperidin-3-yl)-1,3-dioxoisoindolin-5-yl)piperazin-1-yl)propoxy)ethoxy)ethoxy)ethoxy)-6-(trifluoromethyl)benzenesulfonamide] was tested, and the “Plant Activity” value was “++”.
With `COc1cnc(OC)n2nc(NS(=O)(=O)c3c(OCCOCCOCCOCCOCCCN4CCN(c5ccc6c(c5)C(=O)N(C5CCC(=O)NC5=O)C6=O)CC4)cccc3C(F)(F)F)nc12` (stereo not drawn) [Compound 4-R, N-(5,8-Dimethoxy-[1,2,4]triazolo[1,5-c]pyrimidin-2-yl)-2-((15-(4-(2-(2,6-dioxopiperidin-3-yl)-1,3-dioxoisoindolin-5-yl)piperazin-1-yl)-3,6,9,12-tetraoxapentadecyl)oxy)-6-(trifluoromethyl)benzenesulfonamide] the “Plant Activity” value was “−”.
In the case of `COc1cnc(OC)n2nc(NS(=O)(=O)c3c(OCCOCCN4CC(OCCCN5CCN(c6ccc7c(c6)C(=O)N(C6CCC(=O)NC6=O)C7=O)CC5)C(F)(F)C4)cccc3C(F)(F)F)nc12` (stereo not drawn) [Compound 4-S, N-(5,8-Dimethoxy-[1,2,4]triazolo[1,5-c]pyrimidin-2-yl)-2-(2-(2-(4-(3-(4-(2-(2,6-dioxopiperidin-3-yl)-1,3-dioxoisoindolin-5-yl)piperazin-1-yl)propoxy)-3,3-difluoropyrrolidin-1-yl)ethoxy)ethoxy)-6-(trifluoromethyl)benzenesulfonamide], the “Plant Activity” value is reported as “++”.
With `CCO/N=C(\CC)C1=C(O)CC(c2ccc(OCCOCCOCCOc3ccc4c(c3)C(=O)N(C3CCC(=O)NC3=O)C4=O)cc2)CC1=O` (stereo not drawn) [Compound 5, 2-(2,6-dioxo-3-piperidyl)-5-[2-[2-[2-[4-[4-[(E)-N-ethoxy-C-ethyl-carbonimidoyl]-3-hydroxy-5-oxo-cyclohex-3-en-1-yl]phenoxy]ethoxy]ethoxy]ethoxy]isoindoline-1,3-dione] the “Plant Activity” value was “+”.
For `CCC(=O)C1=C(O)CC(c2ccc(OCCOCCOCCN3CCN(c4ccc5c(c4)C(=O)N(C4CCC(=O)NC4=O)C5=O)CC3)cc2)CC1=O` (stereo not drawn) [Compound 5-A, 2-(2,6-Dioxopiperidin-3-yl)-5-(4-(2-(2-(2-((5′-hydroxy-3′-oxo-4′-propionyl-1′,2′,3′,6′-tetrahydro-[1,1′-biphenyl]-4-yl)oxy)ethoxy)ethoxy)ethyl)piperazin-1-yl)isoindoline-1,3-dione], the “Plant Activity” value was “−”.
`CCO/N=C(\CC)C1=C(O)CC(c2ccc(OCCOCCOCCN3CCN(c4ccc5c(c4)C(=O)N(C4CCC(=O)NC4=O)C5=O)CC3)cc2)CC1=O` (stereo not drawn) [Compound 5-B, (E)-2-(2,6-Dioxopiperidin-3-yl)-5-(4-(2-(2-(2-((4′-(1-(ethoxyimino)propyl)-5′-hydroxy-3′-oxo-1′,2′,3′,6′-tetrahydro-[1,1′-biphenyl]-4-yl)oxy)ethoxy)ethoxy)ethyl)piperazin-1-yl)isoindoline-1,3-dione] was tested, and the “Plant Activity” value was “+”.
With `CCO/N=C(\CC)C1=C(O)CC(c2ccc(OC3CCN(CCOCCOCCOCCN4CCN(c5ccc6c(c5)C(=O)N(C5CCC(=O)NC5=O)C6=O)CC4)CC3)cc2)CC1=O` (stereo not drawn) [Compound 5-C, (E)-2-(2,6-Dioxopiperidin-3-yl)-5-(4-(2-(2-(2-(2-(4-((4′-(1-(ethoxyimino)propyl)-5′-hydroxy-3′-oxo-1′,2′,3′,6′-tetrahydro-[1,1′-biphenyl]-4-yl)oxy)piperidin-1-yl)ethoxy)ethoxy)ethoxy)ethyl)piperazin-1-yl)isoindoline-1,3-dione] the “Plant Activity” value was “+”.
With `CCO/N=C(\CC)C1=C(O)CC(c2ccc(OCCOCCN3CCC(CCCN4CCN(c5ccc6c(c5)C(=O)N(C5CCC(=O)NC5=O)C6=O)CC4)CC3)cc2)CC1=O` (stereo not drawn) [Compound 5-D, (E)-2-(2,6-Dioxopiperidin-3-yl)-5-(4-(3-(1-(2-(2-((4′-(1-(ethoxyimino)propyl)-5′-hydroxy-3′-oxo-1′,2′,3′,6′-tetrahydro-[1,1′-biphenyl]-4-yl)oxy)ethoxy)ethyl)piperidin-4-yl)propyl)piperazin-1-yl)isoindoline-1,3-dione] the “Plant Activity” value was “+”.
`CCOC(=O)[C@@H](C)Oc1ccc(Oc2ccc(OCCOCCOCCOc3ccc4c(c3)C(=O)N(C3CCC(=O)NC3=O)C4=O)cn2)cc1` (stereo partly drawn) [Compound 6, Ethyl (2R)-2-(4-((5-(2-(2-(2-((2-(2,6-dioxopiperidin-3-yl)-1,3-dioxoisoindolin-5-yl)oxy)ethoxy)ethoxy)ethoxy)pyridin-2-yl)oxy)phenoxy)propanoate] was tested, and the “Plant Activity” value was “+”.
`CCOC(=O)[C@@H](C)Oc1ccc(Oc2ccc(OCCOCCOCCN3CCN(c4ccc5c(c4)C(=O)N(C4CCC(=O)NC4=O)C5=O)CC3)cn2)cc1` (stereo partly drawn) [Compound 6-A, Ethyl (2R)-2-(4-((5-(2-(2-(2-(4-(2-(2,6-dioxopiperidin-3-yl)-1,3-dioxoisoindolin-5-yl)piperazin-1-yl)ethoxy)ethoxy)ethoxy)pyridin-2-yl)oxy)phenoxy)propanoate] was tested, and the “Plant Activity” value was “+”.
For `CCOC(=O)[C@@H](C)Oc1ccc(Oc2ccc(OCCOCCN3CCC(CCCN4CCN(c5ccc6c(c5)C(=O)N(C5CCC(=O)NC5=O)C6=O)CC4)CC3)cn2)cc1` (stereo partly drawn) [Compound 6-B, Ethyl (2R)-2-[4-[[5-[2-[2-[4-[3-[4-[2-(2,6-dioxo-3-piperidyl)-1,3-dioxo-isoindolin-5-yl]piperazin-1-yl]propyl]-1-piperidyl]ethoxy]ethoxy]-2-pyridyl]oxy]phenoxy]propanoate], the “Plant Activity” value was “+”.
`CCOC(=O)[C@@H](C)Oc1ccc(Oc2ccc(OC3CCN(CCOCCOCCOCCN4CCN(c5ccc6c(c5)C(=O)N(C5CCC(=O)NC5=O)C6=O)CC4)CC3)cn2)cc1` (stereo partly drawn) [Compound 6-C, Ethyl (2R)-2-(4-((5-((1-(2-(2-(2-(2-(4-(2-(2,6-dioxopiperidin-3-yl)-1,3-dioxoisoindolin-5-yl)piperazin-1-yl)ethoxy)ethoxy)ethoxy)ethyl)piperidin-4-yl)oxy)pyridin-2-yl)oxy)phenoxy)-propanoate] was tested, and the “Plant Activity” value was “−”.
With `O=C(COc1ccc(Oc2cncc(C(F)(F)F)c2)cc1)NCCCOCCOCCOCCOCCOc1ccc2c(c1)C(=O)N(C1CCC(=O)NC1=O)C2=O` (stereo not drawn) [Compound 7, N-[3-[2-[2-[2-[2-[2-(2,6-dioxo-3-piperidyl)-1,3-dioxo-isoindolin-5-yl]oxyethoxy]-ethoxy]ethoxy]ethoxy]propyl]-2-[4-[[5-(trifluoromethyl)-3-pyridyl]oxy]phenoxy]acetamide] the “Plant Activity” value was “+”.

From patent US20240365736A1, “COMPOSITIONS AND METHODS FOR TARGETED DEGRADATION OF PROTEINS IN A PLANT CELL” (Oerth Bio LLC, priority 2021, published 2024)
Further: key: '+++' is highly active; '++' is moderately active; '+' is weakly active; '−' is inactive.
